PubChem BioAssay (NCI)
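Where inhibition never reached the appropriate level, the endpoint shown equals the highest concentration tested. Otherwise, values were interpolated linearly from a five-concentration, 48-hour dose response in 96-well plates. TGI is the concentration that stops growth completely.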

Tests used:
Assay in all cases: NCI tumour cell line growth inhibition, 48 h
786-0 renal = tested on: 786-0 renal
A498 renal = tested on: A498 renal
A549 NSCLC = tested on: A549 NSCLC
ACHN renal = tested on: ACHN renal
CAKI-1 renal = tested on: CAKI-1 renal
CCRF-CEM leukemia = tested on: CCRF-CEM leukemia
COLO 205 colon = tested on: COLO 205 colon
DU-145 prostate = tested on: DU-145 prostate
EKVX NSCLC = tested on: EKVX NSCLC
HCC-2998 colon = tested on: HCC-2998 colon
HCT-116 colon = tested on: HCT-116 colon
HCT-15 colon = tested on: HCT-15 colon
HL-60(TB) leukemia = tested on: HL-60(TB) leukemia
HOP-62 NSCLC = tested on: HOP-62 NSCLC
HOP-92 NSCLC = tested on: HOP-92 NSCLC
HT29 colon = tested on: HT29 colon
IGROV1 ovarian = tested on: IGROV1 ovarian
K-562 leukemia = tested on: K-562 leukemia
KM12 colon = tested on: KM12 colon
LOX IMVI melanoma = tested on: LOX IMVI melanoma
M14 melanoma = tested on: M14 melanoma
MALME-3M melanoma = tested on: MALME-3M melanoma
MCF7 breast = tested on: MCF7 breast
MDA-MB-231 breast = tested on: MDA-MB-231 breast
MDA-MB-435 = tested on: MDA-MB-435
MDA-N = tested on: MDA-N
MOLT-4 leukemia = tested on: MOLT-4 leukemia
NCI-H226 lung = tested on: NCI-H226 lung
NCI-H23 lung = tested on: NCI-H23 lung
NCI-H522 lung = tested on: NCI-H522 lung
NCI/ADR-RES ovarian = tested on: NCI/ADR-RES ovarian
OVCAR-3 ovarian = tested on: OVCAR-3 ovarian
OVCAR-4 ovarian = tested on: OVCAR-4 ovarian
OVCAR-8 ovarian = tested on: OVCAR-8 ovarian
PC-3 prostate = tested on: PC-3 prostate
RPMI-8226 leukemia = tested on: RPMI-8226 leukemia
RXF 393 renal = tested on: RXF 393 renal
SF-295 CNS = tested on: SF-295 CNS
SF-539 CNS = tested on: SF-539 CNS
SK-MEL-2 melanoma = tested on: SK-MEL-2 melanoma
SK-MEL-28 melanoma = tested on: SK-MEL-28 melanoma
SK-MEL-5 melanoma = tested on: SK-MEL-5 melanoma
SK-OV-3 ovarian = tested on: SK-OV-3 ovarian
SN12C renal = tested on: SN12C renal
SNB-19 CNS = tested on: SNB-19 CNS
SNB-75 CNS = tested on: SNB-75 CNS
SW-620 colon = tested on: SW-620 colon
T-47D breast = tested on: T-47D breast
TK-10 renal = tested on: TK-10 renal
U251 CNS = tested on: U251 CNS
UACC-257 melanoma = tested on: UACC-257 melanoma
UACC-62 melanoma = tested on: UACC-62 melanoma
UO-31 renal = tested on: UO-31 renal

## O=C(/C(=N/Nc1cn[nH]c(=O)c1Cl)c1ccccc1)c1ccccc1
786-0 renal
  TGI: 68.7 µM
A498 renal
  TGI: 50.4 µM
A549 NSCLC
  TGI: > 100 µM
ACHN renal
  TGI: > 100 µM
CAKI-1 renal
  TGI: 93.1 µM
CCRF-CEM leukemia
  TGI: > 100 µM
COLO 205 colon
  TGI: 49.4 µM
DU-145 prostate
  TGI: 54.3 µM
EKVX NSCLC
  TGI: 83.1 µM
HCC-2998 colon
  TGI: 76.7 µM
HCT-116 colon
  TGI: 99.1 µM
HCT-15 colon
  TGI: 51.3 µM
HL-60(TB) leukemia
  TGI: > 100 µM
HOP-62 NSCLC
  TGI: > 100 µM
HOP-92 NSCLC
  TGI: > 100 µM
HT29 colon
  TGI: 59.1 µM
IGROV1 ovarian
  TGI: 75.1 µM
K-562 leukemia
  TGI: > 100 µM
KM12 colon
  TGI: 32.9 µM
LOX IMVI melanoma
  TGI: 66.9 µM
M14 melanoma
  TGI: > 100 µM
MALME-3M melanoma
  TGI: > 100 µM
MCF7 breast
  TGI: > 100 µM
MDA-MB-231 breast
  TGI: 87.3 µM
MDA-MB-435
  TGI: 32.6 µM
MDA-N
  TGI: 32.8 µM
MOLT-4 leukemia
  TGI: 97.2 µM
NCI-H226 lung
  TGI: > 100 µM
NCI-H23 lung
  TGI: 66.6 µM
NCI-H522 lung
  TGI: 77.2 µM
NCI/ADR-RES ovarian
  TGI: 59.9 µM
OVCAR-3 ovarian
  TGI: 56.2 µM
OVCAR-4 ovarian
  TGI: > 100 µM
OVCAR-8 ovarian
  TGI: > 100 µM
PC-3 prostate
  TGI: > 100 µM
RPMI-8226 leukemia
  TGI: 60.7 µM
RXF 393 renal
  TGI: 47.3 µM
SF-295 CNS
  TGI: > 100 µM
SF-539 CNS
  TGI: 71.1 µM
SK-MEL-2 melanoma
  TGI: > 100 µM
SK-MEL-28 melanoma
  TGI: > 100 µM
SK-MEL-5 melanoma
  TGI: > 100 µM
SK-OV-3 ovarian
  TGI: > 100 µM
SN12C renal
  TGI: > 100 µM
SNB-19 CNS
  TGI: > 100 µM
SNB-75 CNS
  TGI: 71.6 µM
SW-620 colon
  TGI: > 100 µM
T-47D breast
  TGI: 62.7 µM
TK-10 renal
  TGI: > 100 µM
U251 CNS
  TGI: > 100 µM
UACC-257 melanoma
  TGI: 80.2 µM
UACC-62 melanoma
  TGI: 53.5 µM
UO-31 renal
  TGI: > 100 µM
